From patent publication US20260207717A1, “METHODS FOR TREATING INFANTILE-ONSET POMPE DISEASE IN PEDIATRIC PATIENTS” (Amicus Therapeutics, Inc., priority 2022, published 2026)

Legend:
[1] = system: LAMP1, LC3, dysferlin in muscle fibers; assay: Biomarker changes (LAMP1, LC3, dysferlin) in muscle of Gaa KO mice; type: in vivo
Protocol: The therapeutic effects of ATB200 and miglustat were evaluated and compared against those of Alglucosidase alfa in Gaa KO mice. For the study, male Gaa KO (3- to 4-month old) and age-matched wild-type (WT) mice were used. Alglucosidase alfa was administered via bolus tail vein intravenous (IV) injection. In the co-administration regimen, miglustat was administered via oral gavage (PO) 30 minutes prior to the IV injection of ATB200. Treatment was given biweekly. Treated mice were sacrificed after 14 days from the last administration and various tissues were collected for further analysis. Table 11 summarizes the study design:
Tissue samples were also analyzed for biomarker changes following the methods discussed in: Khanna R, et al. (2012), “The pharmacological chaperone [i.e., enzyme stabilizer] […]
Similarly, intense LC3-positive aggregates in the muscle fibers of untreated Gaa KO mice signify the presence of autophagic zones and autophagy build-up. […] A similar observation was made when the expression of LC3 was assessed using western blot. […]
Dysferlin, a protein involved in membrane repair and whose deficiency/mistrafficking is associated with a number of muscular dystrophies, was also assessed.

[2] = system: single fibers isolated from the white gastrocnemius of Gaa KO mice; assay: Single fiber analysis (LAMP1/LC3 co-immunofluorescence); type: in vivo
Source text: FIG. 17 depicts co-immunofluorescent staining of LAMP1 (green) (see for example, “B”) and LC3 (red) (see, for example, “A”) in single fibers isolated from the white gastrocnemius of Gaa KO mice treated with a vehicle, alglucosidase alfa, or ATB200. “C” depicts clearance of autophagic debris and absence of enlarged lysosome. A minimum of 30 fibers were examined from each animal.
As a result, a significant portion of muscle fibers analyzed (36-60%) from ATB200-treated mice appeared normal or near-normal.

[3] = system: adult subjects with late-onset Pompe disease (LOPD); assay: ATB200-03 (PROPEL) phase 3 trial, efficacy; type: in vivo, human; details: for absolute decline in percent-predicted FVC: 52 weeks; for 6MWD Baseline / FVC (% predicted) Baseline: before treatment
Protocol: Efficacy Analyses. The primary efficacy endpoint (i.e., change from baseline to Week 52 in 6MWD) was analyzed using a parametric analysis of covariance (ANCOVA) model to compare between the new treatment and the control. […] However, the baseline 6MWD could not be used in the model twice (both as a continuous and a categorical variable) due to the expected high point biserial correlation between them. Thus, the 6MWD continuous variable remained in the model but the categorical 6MWD was removed.

[4] = system: creatine kinase (CK), urinary hexose tetrasaccharide (Hex4); assay: ATB200-03 (PROPEL) trial, biomarkers; type: in vivo, human; details: for mean urinary Glc4 concentration: ERT-experienced patients
Source text: Pharmacodynamic endpoints were as follows: • change from baseline to Week 52 in serum CK level • change from baseline to Week 52 in urinary Hex4 level

[5] = system: adult subjects with late-onset Pompe disease (LOPD); assay: ATB200-03 (PROPEL) trial, safety; design: species or system human; details: in vivo
Source text: Concomitant medications and nondrug therapies were also be recorded.
Safety Analyses. Safety data was summarized using counts and percentages for categorical data and descriptive statistics (mean, standard deviation, median, minimum, maximum) for continuous data. • Efficacy Results from the ATB200-03 Trial

[6] = system: LOPD population (ERT-naïve and ERT-experienced); assay: Indirect treatment comparison, multi-level network meta regression (ML-NMR); design: species or system human; details: base-case scenario, sensitivity analysis (RCT data only, FIGS. 66, 67)
Protocol: Moreover, a comparison of three randomized clinical trials (LOTS: alglucosidase alfa vs placebo; COMET: avalglucosidase alfa vs alglucosidase alfa; and PROPEL: cipaglucosidase alfa/miglustat vs alglucosidase alfa) share 6MWD and % predicted FVC as key primary or secondary endpoints. Using patient-level data from the PROPEL randomized clinical trial (RCT) plus aggregate published data from other RCTs, Phase I/II and open label extension trials, a multi-level network meta-regression was conducted, adjusting for various baseline covariates including previous ERT duration. The base case scenario had covariates resembling the PROPEL population (naïve and ERT-experienced) and analyzed 6MWD and FVC change from baseline at 52 weeks. […]
A systematic literature review (SLR) was conducted to identify relevant published clinical studies of ERTs in LOPD. Outcomes assessed were change from baseline in 6-minute walking distance (6MWD) (m) and in forced vital capacity (FVC; % predicted) at week 52, acknowledged by clinicians, HTA agencies and payers as key LOPD trial endpoints. […]
A base-case scenario was evaluated in which all covariates were set to the target population of the PROPEL trial. […]

[7] = system: subjects with Pompe disease; details: LOPD, systematic review (Toscano and Schoser 2013); cited from earlier work
[8] = ERT treatment naive population, listed as Alglucosidase alfa
[9] = overall ERT switch and ERT naïve population

In the case of “[199-arginine,223-histidine]prepro-α-glucosidase (human) [alglucosidase alfa]”, the “LC3 II levels (western blot), effect on autophagy” value [1] is reported as “modest”, the “Fibers with Autophagy Buildup” value [2] is reported as over 90% and the “Fibers with Normal or Near-normal Appearance” value [2] is reported as under 10%. For the same substance, the “6MWD CFBL at Week 52” value ([3]; ERT switch population) was 0.0 m, the “FVC (% predicted) CFBL at Week 52” value ([3]; ERT switch population) was −4.0 (0.9) % predicted and the “absolute decline in percent-predicted FVC” value ([3]; ERT switch population) was 4.0%. For the same substance, the “6MWD Baseline” value ([3]; ERT switch population) was 334.6 (114.0) m, the “FVC (% predicted) Baseline” value ([3]; ERT switch population) was 67.5 (21.0) % predicted and the “6MWD CFBL at Week 52” value ([3]; ERT switch population, listed as Alglucosidase alfa) was 0.0 (7.2) m. The “6MWD CFBL at Week 52” value ([3]; ERT treatment naive population) was 38 m, the “FVC (% predicted) CFBL at Week 52” value ([3]; ERT treatment naive population) was −3.6 % predicted and the “6MWD Baseline” value ([3]; ERT treatment naive population) was 420.9 (135.7) m. The “FVC (% predicted) Baseline” value ([3]; ERT treatment naive population) was 79.1 (22.6) % predicted, the “6MWD CFBL at Week 52” value [3, 8] was “+38.3 (11.1) m” and the “FVC (% predicted) CFBL at Week 52” value [3, 8] was −3.6 (1.8) % predicted. The “mean change (SD) in MMT score for lower extremities” value ([3]; baseline to week 52) was 0.9 (2.58), the “mean change in total GSGC score” value ([3]; baseline to week 52) was 0.77 (1.8) and the “6MWD CFBL at Week 52” value [3, 9] was 7 m. The “6MWD Baseline” value [3, 9] was 351.0 (121.3) m, the “6MWD CFBL at Week 52” value ([3]; overall ERT switch and ERT naïve population, listed as Alglucosidase alfa) was “+7.2 (6.6) m” and the “GSGC compared to alglucosidase alfa” value ([3]; overall and ERT-experienced populations, week 52) was “worsening”. For the same substance, the “FVC (% predicted) CFBL at Week 52” value ([3]; overall population) was −4.0 (0.8) % predicted, the “absolute decline in percent-predicted FVC” value ([3]; overall population) was 4.0% and the “FVC (% predicted) Baseline” value ([3]; overall population) was 69.7 (21.5) % predicted. The “mean urinary Glc4 concentration” value ([4]; Week 52) was 9.1 mmol/mol, the “mean urinary Glc4 concentration” value ([4]; baseline) was 7.2 mmol/mol and the “mean change of CK” value ([4]; after 52 weeks) was “+15.6%”. For the same substance, the “mean change of urine Hex-4” value ([4]; combined ERT switch and ERT naïve population, after 52 weeks) was “+11.0%”, the “patients who discontinued treatment due to an adverse event” value [5] was 2.6% and the “patients with injection associated reactions (IARs)” value [5] was 26%. For the same substance, the “relative effect on 6MWT and FVC” value [6] was “numerically favorable versus placebo” and the “subjects without initial improvement during treatment” value [7] was over 30%.
